{
  "source": "patent US20240067625A1",
  "about": "“SMALL-MOLECULE MODULATORS OF THE ORPHAN NUCLEAR RECEPTOR TLX” (priority 2020, published 2024)",
  "biological_target": "TLX LBD (Homo sapiens (Human), UniProt Q9Y466)",
  "sequence (Q9Y466 155-383)": "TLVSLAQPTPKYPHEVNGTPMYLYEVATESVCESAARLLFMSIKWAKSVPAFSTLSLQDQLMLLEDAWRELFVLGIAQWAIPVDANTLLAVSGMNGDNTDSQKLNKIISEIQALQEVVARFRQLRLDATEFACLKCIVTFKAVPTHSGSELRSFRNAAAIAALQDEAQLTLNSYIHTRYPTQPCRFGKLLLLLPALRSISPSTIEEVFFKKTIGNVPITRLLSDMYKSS",
  "assay": "ALPHA screen assay for TLX LBD and coactivator peptide recruitment",
  "type": "biochemical",
  "conditions": "Table 3; for Average ALPHA signal at 200 μM (std. dev.): mean (std. dev.)",
  "protocol": "Assays were performed according to the manufacturer's protocol (PerkinElmer, USA), with the following modifications: Ligands were tested for TLX-coactivator binding in 50 mM phosphate buffer, 150 mM NaCl, pH 7, 1 mM DTT and 100 μM CHAPS. Ligands were dissolved and diluted in DMSO as stocks and were prepared in assay buffer from the original stock in the 100% DMSO and added to the assay plate. Biotinylated SRC peptide and polyhistidine tagged TLX LBD were diluted in assay buffer, subsequently added to respective ALPHA beads, under low light. The plates were spun down, mixed with a shaker and incubated for 120 minutes and read on a TECAN Plate reader using the manufacturer's protocol.",
  "data": [
    {"smiles": "COC(=O)C[C@@H]1CN(Cc2ccccc2)[C@@H](C)CN1C(=O)c1cccnc1NCCC(C)C", "note": "[Compound 74]", "values": [
      {"measurement": "EC50", "value": 0.00982, "unit": "nM"},
      {"measurement": "Average ALPHA signal at 200 μM (std. dev.)", "value": "2.96 (0.08)"}
    ]},
    {"smiles": "CC(C)CCNc1ncccc1C(=O)N1CCN(Cc2ccc(C(=O)O)cc2)CC1", "note": "[Compound 60]", "values": [
      {"measurement": "Average ALPHA signal at 200 μM (std. dev.)", "value": "1.06 (0.05)"}
    ]},
    {"smiles": "Cc1ccc(CN2CCN(C(=O)c3cccnc3NCCC(C)C)[C@H](C)C2)cc1", "note": "[Compound 45]", "values": [
      {"measurement": "EC50", "value": 0.0113, "unit": "nM"},
      {"measurement": "Average ALPHA signal at 200 μM (std. dev.)", "value": "3.50 (0.06)"}
    ]},
    {"smiles": "CC(C)CCNc1ncccc1C(=O)N1CCN(CCCc2ccccc2)C[C@@H]1C", "note": "[Compound 35]", "values": [
      {"measurement": "EC50", "value": 0.0128, "unit": "nM"},
      {"measurement": "Average ALPHA signal at 200 μM (std. dev.)", "value": "4.57 (0.38)"}
    ]},
    {"smiles": "CC(C)CCNc1ncccc1C(=O)N1CCN(Cc2cccc(C(=O)O)c2)CC1", "note": "[Compound 59]", "values": [
      {"measurement": "Average ALPHA signal at 200 μM (std. dev.)", "value": "1.25 (0.09)"}
    ]},
    {"smiles": "COC(=O)C[C@@H]1CN(C(=O)c2cccnc2NCCC(C)C)C[C@H](C)N1Cc1ccccc1", "note": "[Compound 61]", "values": [
      {"measurement": "EC50", "value": 0.0152, "unit": "nM"},
      {"measurement": "Average ALPHA signal at 200 μM (std. dev.)", "value": "2.89 (0.07)"}
    ]},
    {"smiles": "CC(C)CCNc1ncccc1C(=O)N1CCN(Cc2ccccn2)C[C@H]1C", "note": "[Compound 46]", "values": [
      {"measurement": "Average ALPHA signal at 200 μM (std. dev.)", "value": "0.86 (0.09)"}
    ]},
    {"smiles": "COC(=O)c1ccccc1CN1CCN(C(=O)c2cccnc2NCCC(C)C)CC1", "note": "[Compound 55]", "values": [
      {"measurement": "EC50", "value": 0.0412, "unit": "nM"},
      {"measurement": "Average ALPHA signal at 200 μM (std. dev.)", "value": "2.87 (0.07)"}
    ]},
    {"smiles": "Cc1cccc(CN2CCN(C(=O)c3cccnc3NCCC(C)C)[C@@H](C)C2)c1", "note": "[Compound 32]", "values": [
      {"measurement": "EC50", "value": 0.0143, "unit": "nM"},
      {"measurement": "Average ALPHA signal at 200 μM (std. dev.)", "value": "3.85 (0.09)"}
    ]},
    {"smiles": "COC(=O)C[C@H]1CN(Cc2ccccc2)[C@H](C)CN1C(=O)c1cccnc1NCCC(C)C", "note": "[Compound 76]", "values": [
      {"measurement": "EC50", "value": 0.0126, "unit": "nM"},
      {"measurement": "Average ALPHA signal at 200 μM (std. dev.)", "value": "3.09 (0.18)"}
    ]},
    {"smiles": "CC(C)CCNc1ncccc1C(=O)N1CCN(Cc2c[nH]c3ccccc23)C[C@H]1C", "note": "[Compound 54]", "values": [
      {"measurement": "Average ALPHA signal at 200 μM (std. dev.)", "value": "1.17 (0.06)"}
    ]},
    {"smiles": "CC(C)CCNc1ncccc1C(=O)N1CCN(Cc2ccccc2)[C@H](C)[C@@H]1CC(=O)O", "note": "[Compound 79]", "values": [
      {"measurement": "Average ALPHA signal at 200 μM (std. dev.)", "value": "1.23 (0.02)"}
    ]},
    {"smiles": "CCCCCCN1CCN(C(=O)c2cccnc2NCCC(C)C)[C@H](C)C1", "note": "[Compound 47]", "values": [
      {"measurement": "EC50", "value": 0.0125, "unit": "nM"},
      {"measurement": "Average ALPHA signal at 200 μM (std. dev.)", "value": "7.81 (0.45)"}
    ]},
    {"smiles": "CNc1ncccc1C(=O)N1CCN(Cc2ccccc2)[C@H](C)C1", "note": "[Compound 88]", "values": [
      {"measurement": "Average ALPHA signal at 200 μM (std. dev.)", "value": "2.17 (0.21)"}
    ]},
    {"smiles": "CC(C)CCNc1ncccc1C(=O)N1CCN(Cc2ccccc2)[C@@H](C)[C@H]1CC(=O)O", "note": "[Compound 77]", "values": [
      {"measurement": "Average ALPHA signal at 200 μM (std. dev.)", "value": "1.09 (0.06)"}
    ]},
    {"smiles": "COC(=O)C[C@H]1[C@H](C)N(Cc2ccccc2)CCN1C(=O)c1cccnc1NCCC(C)C", "note": "[Compound 70]", "values": [
      {"measurement": "EC50", "value": 0.00485, "unit": "nM"},
      {"measurement": "Average ALPHA signal at 200 μM (std. dev.)", "value": "2.63 (0.01)"}
    ]},
    {"smiles": "CC(C)CNc1ncccc1C(=O)N1CCN(Cc2ccccc2)[C@H](C)C1", "note": "[Compound 87]", "values": [
      {"measurement": "Average ALPHA signal at 200 μM (std. dev.)", "value": "2.07 (0.03)"}
    ]},
    {"smiles": "Cc1ccccc1CN1CCN(C(=O)c2cccnc2NCCC(C)C)[C@H](C)C1", "note": "[Compound 43]", "values": [
      {"measurement": "Average ALPHA signal at 200 μM (std. dev.)", "value": "3.49 (0.17)"}
    ]},
    {"smiles": "C[C@@H]1CN(C(=O)c2cccnc2NC2CC2)CCN1Cc1ccccc1", "note": "[Compound 86]", "values": [
      {"measurement": "Average ALPHA signal at 200 μM (std. dev.)", "value": "1.35 (0.04)"}
    ]},
    {"smiles": "CC(C)CCNc1ncccc1C(=O)N1CCN(CCCc2ccccc2)C[C@H]1C", "note": "[Compound 48]", "values": [
      {"measurement": "Average ALPHA signal at 200 μM (std. dev.)", "value": "3.75 (0.31)"}
    ]},
    {"smiles": "CCCCN1CCN(C(=O)c2cccnc2NCCC(C)C)[C@@H](C)C1", "note": "[Compound 37]", "values": [
      {"measurement": "EC50", "value": 0.0335, "unit": "nM"},
      {"measurement": "Average ALPHA signal at 200 μM (std. dev.)", "value": "2.30 (0.02)"}
    ]},
    {"smiles": "COC(=O)C[C@H]1CN(C(=O)c2cccnc2NCCC(C)C)C[C@H](C)N1Cc1ccccc1", "note": "[Compound 62]", "values": [
      {"measurement": "EC50", "value": 0.012, "unit": "nM"},
      {"measurement": "Average ALPHA signal at 200 μM (std. dev.)", "value": "2.54 (0.08)"}
    ]},
    {"smiles": "CC(C)CCNc1ncccc1C(=O)N1CCN(C)C[C@@H]1C", "note": "[Compound 38]", "values": [
      {"measurement": "Average ALPHA signal at 200 μM (std. dev.)", "value": "0.85 (0.06)"}
    ]},
    {"smiles": "COC(=O)c1cccc(CN2CCN(C(=O)c3cccnc3NCCC(C)C)CC2)c1", "note": "[Compound 56]", "values": [
      {"measurement": "EC50", "value": 0.0442, "unit": "nM"},
      {"measurement": "Average ALPHA signal at 200 μM (std. dev.)", "value": "2.74 (0.08)"}
    ]},
    {"smiles": "CC(C)CCNc1ncccc1C(=O)N1C[C@@H](C)N(Cc2ccccc2)C[C@@H]1CC(=O)O", "note": "[Compound 84]", "values": [
      {"measurement": "Average ALPHA signal at 200 μM (std. dev.)", "value": "1.09 (0.01)"}
    ]}
  ]
}
